Laboratory results taken from patent publication US12103916B2, “Antifungal compounds” (University of Kentucky Research Foundation, priority 2016, dated 2024).
Where two headings read alike, the source gives them in different places. Marks after values point to notes of the source that are not given here.

Columns and labels:
[1] = system: Aspergillus terreus ATCC MYA-3633; test: MIC determination, strain M; type: cell-based; details: Aspergillus terreus, Table 2, all compounds and controls
From the text: For all of our azole derivatives we report their MIC-0 values against C. albicans ATCC 10231 (strain A) and all Aspergillus strains (K-M), which correspond to complete growth inhibition of these fungi. […] The MIC values presented for these five control drugs were either tested herein or correspond to our previously published data^5, 16 as indicated in Table 1.
Antifungal activity in the absence or presence of serum.
(§1) It is important to note that all comparisons to follow will be done by using the MIC values reported in μg/mL as the data were collected that way. However, we also present in parentheses in Table 2 the corresponding values in micromolar.
In this manuscript, we performed all activity comparisons by using the MIC values reported in μg/mL (Note: the corresponding MIC values are also provided in μM into parentheses in Tables 1, 2, S1, and S2).

[2] = system: C. albicans ATCC MYA-2876(S); details: Table 1; strain C; control azoles; previously reported (refs 5, 16); cited from earlier work
[3] = system: ergosterol biosynthetic pathway (sterol 14α-demethylase) in C. albicans ATCC 10231 (strain A); test: Sterol composition by GC-MS, strain A; type: cell-based, Candida albicans
From the text: FIG. 7A-FIG. 7H includes FIG. 7A. A simplified ergosterol biosynthetic pathway and products resulting from inhibition of ERG11. FIG. 7B-G. include GC-MS chromatograms of the sterols extracted from untreated and antifungals treated C. albicans strains. […] The peaks are for lanosterol (1), ergosterol (2), eburicol (3), 14-alpha-methyl ergosta 8,24(28)-dien-3-beta,6-alpha-diol (4), and unknown sterols (5 and 6). FIG. 7H is a table summarizing the percentage of each sterol from panels B-G.
FIG. 13A. A simplified ergosterol biosynthetic pathway and products resulting from inhibition of ERG11. FIG. 13B-FIG. 13F. GC-MS chromatograms of the sterols extracted from untreated and antifungal-treated C. albicans ATCC 10231 (strain A). […] The peaks in these chromatograms are for lanosterol (1), ergosterol (2), eburicol (3), 14α-methyl ergosta-8,24(28)-dien-3β,6α-diol (4), and three unknown sterols (5-7). FIG. 13G includes a table summarizing the percentage of each sterol from panels B-F.
No drug controls were also performed (FIGS. 7D and G).
Determination of sterol composition in c. albicans in the presence and absence of drugs. […] By using gas chromatography-mass spectrometry (GC-MS), we investigated the potential of the synthetic compounds to exert their antifungal activity by inhibiting the sterol 14α-demethylase enzyme of the ergosterol biosynthetic pathway (FIG. 13). […] A no drug control was also performed (FIG. 13A).
Since out of our compounds displaying antifungal activity only compound 8 caused membrane disruption of C. albicans ATCC 10231 (strain A) in the membrane permeabilization assay (section 2.6), we decided to explore by using gas chromatography-mass spectrometry (GC-MS) the effect of compounds 8 and 9 on sterol composition during ergosterol biosynthesis (the mechanism of action of other conventional azoles). […] We also used VOR at 0.12 μg/mL and no drug control for comparison.

[4] = system: C. albicans ATCC 10231 (strain A); test: Time-kill assay, strain A; type: cell-based, Candida albicans; details: Ex.2 series, compound at 4×MIC, VOR control
[5] = system: Aspergillus terreus ATCC MYA-3633; details: Table 1; strain M; control azoles; previously reported (refs 5, 16); cited from earlier work
[6] = system: C. albicans ATCC MYA-2310(S); test: MIC determination, strain E; type: cell-based, Candida albicans; details: Candida albicans
Protocol: (§2) The antifungal activity of our new azole compounds 1-9 and 24-41 was first evaluated against a panel of seven Candida albicans strains (A-G), three non-albicans Candida strains […], and three Aspergillus strains (K-M) in a concentration range of 0.03-31.2 μg/mL (Table 1). […] For all of our azole derivatives we report their MIC-0 values against C. albicans ATCC 10231 (strain A) and all Aspergillus strains (K-M), which correspond to complete growth inhibition of these fungi. […] The commercially available antifungals AmB, FLC, ITC, POS, and VOR were used as reference drugs for comparison. The MIC values presented for these five control drugs were either tested herein or correspond to our previously published data^5, 16 as indicated in Table 1.
(§3) Antifungal activity in the absence or presence of serum. The antifungal activity of the newly prepared alkylated piperazine/morpholine-azole hybrids 16-28, of intermediate 14 that we used to verify that only final compounds exert antifungal activity, as well as that of alkylated piperazine/morpholine derivatives 1-10 were first evaluated against a panel of seven C. albicans (ATCC 10231 (A), ATCC 64124(R) (B), ATCC MYA-2876(S) (C), ATCC 90819(R) (D), ATCC MYA-2310(S) (E), ATCC MYA-1237(R) (F), and ATCC MYA-1003(R) (G)), three non-albicans Candida (C. glabrata ATCC 2001 (H), C. krusei ATCC 6258 (I), and C. parapsilosis ATCC 22019 (J)), and three Aspergillus (A. flavus ATCC MYA-3631 (K), A. nidulans ATCC 38163 (L), and A. terreus ATCC MYA-3633 (M)) strains using a concentration range of 0.03-31.3 μg/mL (Table 2).
as §1, with “Commercially available antifungal agents such as AmB, CAS, FLC, and VOR were used as positive controls for comparison. […] It” for “It”
(§4) We used the commercially available antifungal agents such as AmB, caspofungin (CAS), FLC, and VOR as positive controls for comparison. For derivatives 5-16 as well as the reference drugs AmB and CAS, we reported MIC-0 values, which correspond to no visible growth. […] In this manuscript, we performed all activity comparisons by using the MIC values reported in μg/mL (Note: the corresponding MIC values are also provided in μM into parentheses in Tables 1, 2, S1, and S2).

[7] = system: C. albicans ATCC MYA-2876(S); test: MIC determination, strain C; type: cell-based, Candida albicans; details: Candida albicans
Protocol: as §2, §3
as §1, with “Commercially available antifungal agents such as AmB, CAS, FLC, and VOR were used as positive controls for comparison. […] It” for “It”
as §4

[8] = Ex.2 series, VOR 0.12, 20 0.48, 26 0.975 μg/mL
[9] = Ex.3 series, VOR 0.12, 8 and 9 at sub-MIC […] and 0.975 μg/mL
[10] = read-out: MIC (MIC-2), in parentheses

C[C@@H](c1ncncc1F)[C@](O)(Cn1cncn1)c1ccc(F)cc1F [VOR, voriconazole]
MIC ([1]; read-out: MIC (MIC-0)): 0.12 µg/mL | MIC ([1]; read-out: MIC (MIC-0), in parentheses): 0.34 µM | MIC (MIC-2) [2]: 1.95^c μg/mL | ergosterol (2), percentage of sterols ([3]; Ex.2 series, FLC 1.95, VOR 0.12, 20 0.48, 26 0.975 μg/mL): 64.93% | eburicol (3), percentage of sterols [3, 8]: 2.14% | lanosterol (1), percentage of sterols [3, 8]: 18.49% | eburicol (3), percentage of sterols [3, 9]: 1.73% | ergosterol (2), percentage of sterols [3, 9]: 50.80% | lanosterol (1), percentage of sterols [3, 9]: 15.21% | effect in time-kill assay [4]: fungistatic | MIC (MIC-2) [5]: 0.12^c μg/mL | MIC ([6]; read-out: MIC (MIC-2)): 0.975 µg/mL | MIC [6, 10]: 2.8 µM | MIC ([7]; read-out: MIC (MIC-2)): 1.95 µg/mL | MIC [7, 10]: 5.6 µM
